Measurements: patent US20260315446A1, “ANTIFUNGAL COMPOUNDS AND USES THEREOF” (priority 2023, published 2026)
Entries after “also recorded” stand apart in the source; their conditions may differ.

How the values were obtained:
[1] = tested on: T follicular helper (Tfh) cells; assay: In vivo immunosuppression, T follicular helper cells (Example 3); settings: 8 days
Experimental: The in vivo immunosuppressive effect of JH-FK-08 was assessed by studying T follicular helper (Tfh) cell production in mice. Tfh cells play a role in protection against and response to fungal infections (see, Wong G K, et al., 1998. J Antibiot 51:487-491; Cruz M C, et al., 1999. Mol Cell Biol 19:4101-4112). For this study, immunocompetent C57BL/6 mice received 8 days of twice-daily dosing of vehicle, FK506 (2.5 mg/kg), or JH-FK-08 (20 or 40 mg/kg). Twenty-four hours after the first dose, mice were immunized with NP-OVA to induce an immune response. Cells were analyzed 7 days post immunization, and cell types were analyzed by flow cytometry (FIG. 15B).
Cell surface staining of single cell suspensions was performed in staining buffer (PBS supplemented with 2 mM EDTA and 0.5% BSA). Anti-FcγR (93; Biolegend) was treated to block the Fe receptor before surface staining of primary cells isolated from lymph nodes of NP-OVA-immunized mice. Cells were stained with fixable viability dye (eBioscience) before surface staining to exclude dead cells from analysis. For the detection of intracellular cytokines, cells were additionally incubated with phorbol 12-myristate 13-acetate and ionomycin in the presence of GolgiStop (BD Biosciences) during the final 4 h of incubation. For intracellular staining, cells were fixed and permeabilized with Fixation/Permeabilization Buffer (eBioscience). Flow cytometric analysis was performed utilizing BD FACSCantoII or BD LSRFortessaX20 (BD Biosciences) and FlowJo software (BD Biosciences).
Groups of five female C57BL/6 mice were treated twice daily for 8 days with vehicle, FK506 (2.5 mg/kg), JH-FK-08 (20 mg/kg), or JH-FK-08 (40 mg/kg) via i.p. injection. Twenty-four hours after the first dose, animals were immunized with NP-OVA (100 μg) in alum via subcutaneous injection. Seven days post immunization, mice were sacrificed, and draining lymph nodes were harvested for the analysis of Tfh cells and GC B cells by flow cytometry.

[2] = tested on: C. neoformans growth versus IL-2 in murine T cells; assay: Therapeutic index score (immunosuppressive fold change to antifungal fold change relative to FK506); design: species or system Cryptococcus neoformans; mouse; settings: for Therapeutic Index Score: FK506 = 1.0
In short: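 TIscore = ratio of immunosuppressive fold change (IL-2, murine T cells) to antifungal fold change (C. neoformans), both relative to FK506; values >1.0 denote greater fungal specificity. Derived from in vitro fungal versus mammalian calcineurin inhibition data.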

With `CC[C@@H]1/C=C(\C)C[C@H](C)C[C@H](OC)[C@H]2O[C@@](O)(C(=O)C(=O)N3CCCC[C@H]3C(=O)O[C@H](/C(C)=C/C3CC[C@@H](O)[C@H](OC)C3)[C@H](C)[C@@H](O)C/C1=N/NC(=O)OC)[C@H](C)C[C@@H]2OC` (stereo partly shown) [JH-FK-08] the “production of Tfh cells” value ([1]; JH-FK-08 20 mg/kg i.p. twice daily) was “no significant effect on the percent of Tfh cells produced compared to vehicle” and the “production of Tfh cells” value ([1]; JH-FK-08 40 mg/kg i.p. twice daily) was “production of Tfh cells was reduced”.
With `C=CCC1C=C(C)CC(C)CC(OC)C2OC(O)(C(=O)C(=O)N3CCCCC3C(=O)OC(C(C)=CC3CCC(O)C(OC)C3)C(C)C(O)CC1=O)C(C)CC2OC` (stereo not shown) [FK506, reference compound] the Therapeutic index ([2]; Example 3, C. neoformans H99, FK506 = 1.0) was 1.0, the “Therapeutic Index Score” value ([2]; Table 12, Example 4) was 1.0 and the “Therapeutic Index Score” value ([2]; Table 13, Example 4) was 1.0. For the same compound, the “production of Tfh cells” value ([1]; FK506 2.5 mg/kg i.p. twice daily, 2.5 mg/kg) was “significantly reduced; also recorded: significantly inhibits Tfh cell production at 1/16 of the dose of JH-FK-08”.
`C=CC[C@@H]1/C=C(\C)C[C@H](C)C[C@H](OC)[C@H]2O[C@@](O)(C(=O)C(=O)N3CCCC[C@H]3C(=O)O[C@H](/C(C)=C/[C@@H]3CC[C@@H](O)[C@H](OC)C3)[C@H](C)[C@@H](O)C/C1=N/NC(=O)CC)[C@H](C)C[C@@H]2OC` [JH-FK-02] was tested, and the “therapeutic index score (TIscore)” value ([2]; Example 1, C. neoformans MIC and IL-2 IC50, FK506 = 1.0) was 9.7.
